How the values were obtained:
B. subtilis 168 [1] = assay: fitness (endpoint OD595 vs no drug) (fraction); higher = more growth
Outline: (§1)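 Fitness expresses the optical density reached at the stationary-phase transition as a fraction of the robust mean of no-drug control wells. It is capped at 1. Measurements were OD595 every 30 min for 14 h at 37 °C after inoculation of 384-well plates at OD595 0.01 (30 µl, or 55 µl for S. pneumoniae), minus the first reading.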

S. aureus Newman = assay: Bliss interaction score (quartile over a dose matrix) (fitness difference); higher = more antagonism (negative = synergy)
Outline: (§2)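 Quartiles summarise the Bliss score over technical, biological and donor/recipient replicates, where the score is observed minus expected fitness under a product model. Expected fitness uses single-drug values inferred from combination data. Fitness is OD595 at entry into stationary phase over the plate's robust no-drug mean, capped at 1.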

S. pneumoniae D39V [2] = assay: as above
Outline: as §2

B. subtilis 168 [3] = assay: as above
Outline: as §2

S. aureus DSM 20231 = assay: as above
Outline: as §2

S. pneumoniae D39V [4] = assay: fitness (endpoint OD595 vs no drug) (fraction); higher = more growth
Outline: as §1
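For Bliss interaction score (quartile over a dose matrix) in this document: first quartile when negative (synergy) and third quartile when positive (antagonism).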

CCC[C@@H]1C[C@@H](C(=O)N[C@@H]([C@H]2O[C@H](SC)[C@H](O)[C@@H](O)[C@H]2O)[C@@H](C)O)N(C)C1 [Lincomycin] + CO[C@@H]1[C@@H](OC(N)=O)[C@@H](O)[C@H](Oc2ccc3c(O)c(NC(=O)c4ccc(O)c(CC=C(C)C)c4)c(=O)oc3c2C)OC1(C)C [Novobiocin]
fitness, B. subtilis 168 [1]
Conditions	first compound 0.1 µg/mL	first compound 0.2 µg/mL	first compound 0.4 µg/mL
partner 0.0125 µg/mL	0.889	0.971	0.899
partner 0.025 µg/mL	0.879	0.894	0.845
partner 0.05 µg/mL	0.905	0.932	0.902

fitness, B. subtilis 168 [1], one replicate
Conditions	first compound 0.1 µg/mL	first compound 0.2 µg/mL	first compound 0.4 µg/mL	first compound 0.8 µg/mL	first compound 1.6 µg/mL
partner 0.1 µg/mL	≥ 1	0.995	0.976	–	–
partner 0.125 µg/mL	–	–	0.836	0.883	0.88
partner 0.2 µg/mL	0.991	0.956	≥ 1	–	–
partner 0.25 µg/mL	–	–	0.809	0.848	0.819
partner 0.5 µg/mL	–	–	0.569	0.563	0.594

Conditions	Bliss interaction score
B. subtilis 168 [3]	-0.0587
S. aureus DSM 20231	0.104
S. aureus Newman	0.191
S. pneumoniae D39V [2]	-0.0884

COc1c(N2C[C@@H]3CCCN[C@@H]3C2)c(F)cc2c(=O)c(C(=O)O)cn(C3CC3)c12 [Moxifloxacin] + CO[C@@H]1[C@@H](OC(N)=O)[C@@H](O)[C@H](Oc2ccc3c(O)c(NC(=O)c4ccc(O)c(CC=C(C)C)c4)c(=O)oc3c2C)OC1(C)C [Novobiocin]
fitness, B. subtilis 168 [1]
Conditions	first compound 0.0312 µg/mL	first compound 0.0625 µg/mL	first compound 0.125 µg/mL	first compound 2 µg/mL	first compound 4 µg/mL	first compound 8 µg/mL
partner 0.0125 µg/mL	–	–	–	0.0294	0.0275	0.0124
partner 0.025 µg/mL	–	–	–	0.016	0.0146	0.0125
partner 0.05 µg/mL	0.0425	0.0373	0.0299	0.0168	0.0053	0.0129
partner 0.1 µg/mL	0.0335	0.0227	0.0176	–	–	–
partner 0.2 µg/mL	0.0331	0.0211	0.0159	–	–	–

fitness, B. subtilis 168 [1], one replicate
Conditions	first compound 0.0312 µg/mL	first compound 0.0625 µg/mL	first compound 0.125 µg/mL
partner 0.125 µg/mL	0.0427	0.0166	0.0119
partner 0.25 µg/mL	0.0377	0.0432	0.0101
partner 0.5 µg/mL	0.0342	0.0161	0.011

Conditions	Bliss interaction score
B. subtilis 168 [3]	-0.0346
S. aureus DSM 20231	-0.0723
S. aureus Newman	-0.113
S. pneumoniae D39V [2]	0.0943

O=C1CN(/N=C/c2ccc([N+](=O)[O-])o2)C(=O)N1 [Nitrofurantoin] + CN[C@@H]1[C@H](O[C@H]2[C@H](O[C@H]3[C@H](O)[C@@H](O)[C@H](N=C(N)N)[C@@H](O)[C@@H]3N=C(N)N)O[C@@H](C)[C@]2(O)C=O)O[C@@H](CO)[C@H](O)[C@H]1O [Streptomycin]
fitness, S. pneumoniae D39V [4]
Conditions	first compound 1.285 µg/mL	first compound 2 µg/mL	first compound 2.57 µg/mL	first compound 4 µg/mL	first compound 8 µg/mL
partner 2 µg/mL	0.956	–	0.938	–	–
partner 4 µg/mL	0.953	0.956	0.921	0.936	0.768
partner 8 µg/mL	0.927	0.884	0.918	0.887	0.743

fitness, S. pneumoniae D39V [4], one replicate
Conditions	first compound 2 µg/mL	first compound 4 µg/mL	first compound 5.14 µg/mL	first compound 8 µg/mL
partner 2 µg/mL	0.965	0.948	0.86	0.76
partner 4 µg/mL	–	–	0.8	–
partner 8 µg/mL	–	–	0.809	–
partner 16 µg/mL	0.743	0.753	–	0.585

Conditions	Bliss interaction score
B. subtilis 168 [3]	-0.0807
S. aureus DSM 20231	-0.0532
S. aureus Newman	-0.0496
S. pneumoniae D39V [2]	0.0583

O=C1CN(/N=C/c2ccc([N+](=O)[O-])o2)C(=O)N1 [Nitrofurantoin] + CN[C@H](CC(C)C)C(=O)N[C@H]1C(=O)N[C@@H](CC(N)=O)C(=O)N[C@H]2C(=O)N[C@H]3C(=O)N[C@H](C(=O)N[C@H](C(=O)O)c4cc(O)cc(O)c4-c4cc3ccc4O)[C@H](O)c3ccc(c(Cl)c3)Oc3cc2cc(c3O[C@@H]2O[C@H](CO)[C@@H](O)[C@H](O)[C@H]2O[C@H]2C[C@](C)(N)[C@H](O)[C@H](C)O2)Oc2ccc(cc2Cl)[C@H]1O [Vancomycin]
fitness, S. pneumoniae D39V [4]
Conditions	first compound 1.285 µg/mL	first compound 2 µg/mL	first compound 2.57 µg/mL	first compound 4 µg/mL	first compound 8 µg/mL
partner 0.03125 µg/mL	–	0.926	–	0.959	0.892
partner 0.0625 µg/mL	–	0.882	–	0.959	0.894
partner 0.125 µg/mL	0.969	0.748	0.973	0.851	–
partner 0.25 µg/mL	0.611	–	0.653	–	–
partner 0.5 µg/mL	0.0954	–	0.0768	–	–

S. pneumoniae D39V [4], first compound 5.14 µg/mL, one replicate
Conditions	fitness
partner 0.125 µg/mL	0.965
partner 0.25 µg/mL	0.446
partner 0.5 µg/mL	0.118

Conditions	Bliss interaction score
B. subtilis 168 [3]	0.0308
S. aureus DSM 20231	0.0253
S. aureus Newman	0.0534
S. pneumoniae D39V [2]	0.142

O=C1CN(/N=C/c2ccc([N+](=O)[O-])o2)C(=O)N1 [Nitrofurantoin] + CO[C@H]1/C=C/O[C@@]2(C)Oc3c(C)c(O)c4c(O)c(c(/C=N/N5CCN(C)CC5)c(O)c4c3C2=O)NC(=O)/C(C)=C\C=C\[C@H](C)[C@H](O)[C@@H](C)[C@@H](O)[C@@H](C)[C@H](OC(C)=O)[C@@H]1C [Rifampicin]
fitness, S. pneumoniae D39V [4]
Conditions	first compound 1.285 µg/mL	first compound 2 µg/mL	first compound 2.57 µg/mL	first compound 4 µg/mL	first compound 8 µg/mL
partner 0.05 µg/mL	0.825	0.789	0.798	0.781	0.668
partner 0.1 µg/mL	0.372	–	0.353	–	0.351
partner 0.2 µg/mL	0.129	–	0.166	–	–

fitness, S. pneumoniae D39V [4], one replicate
Conditions	first compound 2 µg/mL	first compound 4 µg/mL	first compound 5.14 µg/mL	first compound 8 µg/mL
partner 0.025 µg/mL	0.873	0.85	–	0.782
partner 0.05 µg/mL	–	–	0.806	–
partner 0.1 µg/mL	–	–	0.369	–
partner 0.2 µg/mL	0	0	0.171	0

Conditions	Bliss interaction score
B. subtilis 168 [3]	-0.0448
S. aureus DSM 20231	-0.0228
S. aureus Newman	-0.0316
S. pneumoniae D39V [2]	-0.117

Reference: the supplement of paper PMC10627819
